Read-outs that look alike come from different tables or passages of the source.
Legend:
Toll-like receptor 8 = Toll-like receptor 8 (Homo sapiens (Human), UniProt Q9NR97); test: Toll-like receptor 8 in vitro receptor binding activity screen (HEK-blue hTLR8 cell, alkaline phosphatase/Quanti-Blue readout); type: cell-based
Procedure: (§1) Toll-Like Receptor 7 and Toll-Like Receptor 8 In Vitro Receptor Binding Activity Screen
(§2) HEK-blue hTLR7 cell and HEK-blue hTLR8 cell (available from InvivoGen)
(§3) 1. Preparation of 96-well compound plate:
(§4) The compounds were gradient diluted with DMSO in 3-fold using liquid work station POD starting at a concentration of 10 mmol/L and 10 points were diluted (2nd column to 11th column, and each point was duplicated). At 12th column, 1 μL of 5 mg/mL positive compound R848 was added as positive control; and at 1st column, 1 μL of DMSO was added as negative control. Each well contained 1 μL of DMSO.
(§5) 2. The cells in culture flask were collected and the cell density was diluted to 250,000 cells/mL.
(§6) 3. 200 μL (50,000 cells/well) of cell suspension was added into prepared compound plate and the final concentration of DMSO in each well was 0.5%.
(§7) 4. The culture plates containing cells and the compounds were incubated in CO2 incubator for 24 h at 37° C., 5% CO2.
(§8) 5. After 24 h incubation, 20 μL of supernatant was removed from each well to a 96-well transparent assay plate. To each well of the assay plate was added 180 μL of Quanti-Blue reagent and the plate was incubated in an incubator at 37° C., 5% CO2 for 1 h.
(§9) 6. After 1 h, the content of alkaline phosphatase in 20 μL of supernatant was determined using Microplate Reader OD650.
(§10) 7. EC50 of each compound was obtained with Prism software.

Toll-like receptor 7 = Toll-like receptor 7 (Homo sapiens (Human), UniProt Q9NYK1); test: Toll-like receptor 7 in vitro receptor binding activity screen (HEK-blue hTLR7 cell, alkaline phosphatase/Quanti-Blue readout); type: cell-based; conditions: for EC50: HEK-blue hTLR7 cell, read-out: TLR7 EC50
Sequence of Toll-like receptor 7 (Q9NYK1 27-1049): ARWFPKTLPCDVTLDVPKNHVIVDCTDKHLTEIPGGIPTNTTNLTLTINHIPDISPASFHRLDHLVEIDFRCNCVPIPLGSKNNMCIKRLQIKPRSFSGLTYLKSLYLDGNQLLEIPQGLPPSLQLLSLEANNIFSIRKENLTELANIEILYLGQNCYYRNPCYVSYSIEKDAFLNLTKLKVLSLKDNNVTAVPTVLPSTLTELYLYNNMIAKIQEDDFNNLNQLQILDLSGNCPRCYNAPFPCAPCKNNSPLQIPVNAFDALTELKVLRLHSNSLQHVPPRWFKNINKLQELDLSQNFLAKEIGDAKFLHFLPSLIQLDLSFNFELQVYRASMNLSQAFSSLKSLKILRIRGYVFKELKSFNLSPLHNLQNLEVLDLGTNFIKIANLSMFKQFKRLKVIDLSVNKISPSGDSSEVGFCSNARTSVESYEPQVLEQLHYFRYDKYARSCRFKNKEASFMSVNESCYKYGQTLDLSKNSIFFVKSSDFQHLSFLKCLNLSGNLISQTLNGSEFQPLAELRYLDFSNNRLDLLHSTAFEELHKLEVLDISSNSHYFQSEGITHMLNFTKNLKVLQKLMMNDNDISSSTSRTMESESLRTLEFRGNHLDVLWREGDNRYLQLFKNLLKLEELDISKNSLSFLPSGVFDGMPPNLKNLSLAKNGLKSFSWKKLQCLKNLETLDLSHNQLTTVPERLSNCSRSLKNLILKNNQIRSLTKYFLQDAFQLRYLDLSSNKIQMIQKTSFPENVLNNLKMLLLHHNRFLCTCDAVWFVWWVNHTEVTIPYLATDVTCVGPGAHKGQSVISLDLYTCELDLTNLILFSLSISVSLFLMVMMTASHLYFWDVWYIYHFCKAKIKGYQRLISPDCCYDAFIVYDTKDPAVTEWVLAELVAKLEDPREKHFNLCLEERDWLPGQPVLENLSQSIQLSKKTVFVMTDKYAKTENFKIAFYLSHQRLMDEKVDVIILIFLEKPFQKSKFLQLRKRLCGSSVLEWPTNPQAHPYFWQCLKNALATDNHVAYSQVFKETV
Procedure: as §1, §2, §3, §4, §5, §6, §7, §8, §9, §10

hepatitis b virus = test: In vivo pharmacodynamics in HDI (hydrodynamic injection) mouse model infected with hepatitis b virus; conditions: 20 mg/kg intragastric, once a day, day 1 to day 7; FIGS. 1 and 2
Procedure: In Vivo Pharmacodynamics in HDI (Hydrodynamic Injection) Mouse Model Infected with Hepatitis b Virus
Experimental Design and Procedures:
Route: intragastric administration
Administration time: day 1 to day 7, 7 days in total
At day 1, 3, 5 and 7, plasma samples were collected 4 h after administration; and at day 7, liver sample was collected 4 h after administration.

in vivo = conditions: rat
Procedure: 12 male SD rats were divided into 4 groups with 3 SD rats in each group. […] […] Each rat with oral administration was collected for whole blood samples which were prepared into plasma 15, 30 min and 1, 2, 4, 8, 24 h continuously after administration.

[1] = test system: human peripheral blood mononuclear cells (PBMC); test: Peripheral blood mononuclear cell assay (cytokine induction, CBA); type: cell-based; conditions: for minimal effective concentration: Homo sapiens, read-out: INF-α MEC
Procedure: Peripheral Blood Mononuclear Cell Assay The purpose of this example is to determine the expression level of cytokines 24 h after stimulation to human peripheral blood mononuclear cells (PBMC) with the compounds. The cell supernatant was assayed without dilution and the levels of IFN-α and TNF-α were directly determined. The compound was firstly formulated into 20 mM DMSO stock solution and was gradient diluted with cell medium in 10-fold with the total number of 11 diluting points. The compounds in 9 diluting points (the highest concentration was 200 μmol/L) were added into 96-well plate with 50 μL in each well. Fresh human peripheral blood mononuclear cells were inoculated, with 150 μL in each well containing 450,000 cells. The cell culture plate was incubated in an incubator at 37° C., 5% CO2 for 24 h. After incubation, the culture plate was centrifuged at 1200 rpm for 5 min and the supernatant was collected and stored at −20° C. for determination. The determination of cytokine was performed using Cytometric Bead Array (CBA) of BD-Pharmingen on flow cytometer. Using the above determining method, the lowest drug concentration stimulating cytokine level which is over 3 times greater than the lowest detectable limit was designated as the MEC (Minimal Effective Concentration) value in the cytokine stimulating test.

duck hepatitis b virus = test: In vivo pharmacodynamics in duckling model infected with hepatitis B virus; set-up: species or system Beijing ducks
Procedure: In Vivo Pharmacodynamics in Duckling Model Infected with Hepatitis B Virus
Experimental design and procedures: Beijing ducks of 1 day old were intravenously administered duck hepatitis b virus positive duck serum. After 7 days, the animals were administered according to grouping, 6 ducks in each group. Control group: normal saline. […] The samples were administered intragastricly: 20 mg/kg groups were administered once every third day (one administration every 3 days) and 5 mg/kg groups were administered once every day for 16 days. […] For control group infected with duck hepatitis b virus, solvent was used instead of drug. 7 days after infection, the blood was collected before administration (TO),8 days after administration (T8),16 days after administration (T16) and 3 day after ceasing administration (P3), and the duck serum was separated and frozen for storage. […] Duck serum DNA (DHBV-DNA) determination: different duck sera in a batch were determined for duck blood DHBV-DNA level with real time fluorescent quantitative PCR. Statistics analysis: paired and grouped analysis was used to calculate the significance of inhibition of drug on duck serum DHBV-DNA for assessment.

Sequence of Toll-like receptor 8 (Q9NR97 27-1041): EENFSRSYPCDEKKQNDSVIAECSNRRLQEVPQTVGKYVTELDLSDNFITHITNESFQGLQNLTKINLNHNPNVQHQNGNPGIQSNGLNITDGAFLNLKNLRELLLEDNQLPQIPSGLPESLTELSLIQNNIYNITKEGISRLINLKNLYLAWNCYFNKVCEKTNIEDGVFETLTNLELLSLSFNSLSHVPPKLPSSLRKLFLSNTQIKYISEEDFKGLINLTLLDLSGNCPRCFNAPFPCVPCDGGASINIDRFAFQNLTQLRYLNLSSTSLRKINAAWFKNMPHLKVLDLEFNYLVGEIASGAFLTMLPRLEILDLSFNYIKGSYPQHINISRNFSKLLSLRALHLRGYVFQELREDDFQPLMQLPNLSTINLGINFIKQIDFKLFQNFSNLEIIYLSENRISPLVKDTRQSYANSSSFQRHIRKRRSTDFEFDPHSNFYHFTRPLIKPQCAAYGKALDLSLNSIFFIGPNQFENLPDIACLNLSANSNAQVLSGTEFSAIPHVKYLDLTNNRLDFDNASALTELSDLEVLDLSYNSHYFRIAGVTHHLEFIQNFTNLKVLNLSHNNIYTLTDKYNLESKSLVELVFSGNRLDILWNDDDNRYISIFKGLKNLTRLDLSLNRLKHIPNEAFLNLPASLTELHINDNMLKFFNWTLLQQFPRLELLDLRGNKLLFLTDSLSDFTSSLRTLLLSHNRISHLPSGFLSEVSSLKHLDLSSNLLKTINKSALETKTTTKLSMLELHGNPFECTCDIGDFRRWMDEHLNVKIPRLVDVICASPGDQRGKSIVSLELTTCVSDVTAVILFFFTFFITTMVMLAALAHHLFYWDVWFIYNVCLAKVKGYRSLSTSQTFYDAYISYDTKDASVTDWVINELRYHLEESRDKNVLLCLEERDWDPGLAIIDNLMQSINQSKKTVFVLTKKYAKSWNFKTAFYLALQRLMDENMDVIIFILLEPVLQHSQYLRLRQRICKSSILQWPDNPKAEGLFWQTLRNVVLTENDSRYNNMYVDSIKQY

CCCCOc1nc(N)c2[nH]cc(Cc3ccc(CN4CCCC4)cc3)c2n1 [Example 21, 2-butoxy-7-(4-(pyrrolidine-1-ylmethyl)benzyl)-5H-pyrrolo[3,2-d]pyrimidine-4-amine]
EC50 (Toll-like receptor 8; HEK-blue hTLR8 cell, head-to-head test, read-out: TLR8 EC50): 11600 nM
in vitro receptor binding activity to Toll-like receptor 8 compared with GS-9620 (Toll-like receptor 8; versus control GS-9620): lower
EC50 (Toll-like receptor 7; 24 h): 100 to 1000 nM
EC50 (Toll-like receptor 7; head-to-head test): 160 nM
in vitro receptor binding activity to Toll-like receptor 7 compared with GS-9620 (Toll-like receptor 7; versus control GS-9620): higher
efficacy by HBV copy numbers in plasma and liver compared with GS-9620 (hepatitis b virus): better efficacy
AUC(0-inf) (in vivo; male, SD, iv, 1 mg/kg): 0.676 µM·h
AUC(0-t) (in vivo; male, SD, iv, 1 mg/kg): 0.641 µM·h
Cmax (in vivo; male, SD, iv, 1 mg/kg): 478 nM
Vd (in vivo; male, SD, iv, 1 mg/kg): 29 L/kg
clearance (in vivo; male, SD, iv, 1 mg/kg): 65.8 mL/min/kg
half-life (in vivo; male, SD, iv, 1 mg/kg): 5.76 h
Mean plasma drug concentration (in vivo; male, SD, iv, 1 mg/kg, 0.083 h): 318 nM
Mean plasma drug concentration (in vivo; male, SD, iv, 1 mg/kg, 0.25 h): 141 nM
Mean plasma drug concentration (in vivo; male, SD, iv, 1 mg/kg, 0.5 h): 109 nM
Mean plasma drug concentration (in vivo; male, SD, iv, 1 mg/kg, 1 h): 74.3 nM
Mean plasma drug concentration (in vivo; male, SD, iv, 1 mg/kg, 2 h): 48.9 nM
Mean plasma drug concentration (in vivo; male, SD, iv, 1 mg/kg, 4 h): 37.7 nM
Mean plasma drug concentration (in vivo; male, SD, iv, 1 mg/kg, 8 h): 31.6 nM
Mean plasma drug concentration (in vivo; male, SD, iv, 1 mg/kg, 24 h): 3.94 nM
AUC(0-inf) (in vivo; male, SD, po, 5 mg/kg): 0.749 µM·h
AUC(0-t) (in vivo; male, SD, po, 5 mg/kg): 0.699 µM·h
Cmax (in vivo; male, SD, po, 5 mg/kg): 186 nM
half-life (in vivo; male, SD, po, 5 mg/kg): 6.24 h
Mean plasma drug concentration (in vivo; male, SD, po, 5 mg/kg, 0.25 h): 69.4 nM
Mean plasma drug concentration (in vivo; male, SD, po, 5 mg/kg, 0.5 h): 41.6 nM
Mean plasma drug concentration (in vivo; male, SD, po, 5 mg/kg, 1 h): 36.4 nM
Mean plasma drug concentration (in vivo; male, SD, po, 5 mg/kg, 2 h): 186 nM
Mean plasma drug concentration (in vivo; male, SD, po, 5 mg/kg, 4 h): 51.2 nM
Mean plasma drug concentration (in vivo; male, SD, po, 5 mg/kg, 8 h): 23.9 nM
Mean plasma drug concentration (in vivo; male, SD, po, 5 mg/kg, 24 h): 5.25 nM
exposure compared with GS-9620 (in vivo): higher exposure
half-life compared with GS-9620 (in vivo): longer half-life
minimal effective concentration ([1]; PBMC, 24 h, human PBMC, 24 h, Minimal Effective Concentration): 1e-05 to 0.001 µM
minimal effective concentration ([1]; PBMC, 24 h, human PBMC, 24 h, head-to-head test): 0.005 µM
TNF-α inducing activity compared with GS-9620 ([1]; PBMC, versus control GS-9620): comparable
in vitro IFN-α inducing activity compared with GS-9620 ([1]; PBMC, versus control GS-9620): higher
TNF-α MEC ([1]; human PBMC, 24 h, head-to-head test): 500 nM
Duck serum HBV-DNA inhibition % (duck hepatitis b virus; 5 mg/kg intragastric once every day for 16 days, P3): 95.55 ± 3.56 %
Duck serum HBV-DNA inhibition % (duck hepatitis b virus; 5 mg/kg intragastric once every day for 16 days, T8): 99.96 ± 0.06 %
inhibition rate compared with GS-9620 (duck hepatitis b virus; 5 mg/kg, one administration everyday): significant advantage
Duck serum HBV-DNA inhibition % (duck hepatitis b virus; 20 mg/kg intragastric once every third day, P3 (3 days after ceasing administration)): 92.81 ± 13.79 %
Duck serum HBV-DNA inhibition % (duck hepatitis b virus; 20 mg/kg intragastric once every third day, T8 (8 days after administration)): 100.0 ± 0 %
Duck serum HBV-DNA inhibition % (duck hepatitis b virus; 20 mg/kg intragastric once every third day, T16 (16 days after administration)): 98.80 ± 1.84 %
rebound of HBV-DNA replication (duck hepatitis b virus; 20 mg/kg one administration every third day, 3 days after ceasing administration): no rebound
inhibition rate compared with GS-9620 (duck hepatitis b virus; 20 mg/kg, one administration every third day): roughly comparable

Source: US9962388B2, “Pyrrolopyrimidine compounds used as TLR7 agonist” (priority 2014, dated 2018)
